In the NIST ThermoML archive (doi:10.1021/acs.jced.5b00112):
Numbers after ± are expanded uncertainties.

Assay: wn = mass fraction of the nth substance listed
Settings: 348 K, 101 kPa, Liquid, Pycnometric method

| mass density (w1 = 0.7426) | mass density (w1 = 0.5348) | Structure (SMILES) |
| --- | --- | --- |
| 2062.6 ± 3.5 kg/m3 |  | [Br-].[Br-].[Ca+2] [calcium bromide] + O |
|  | 1674.1 ± 1.8 kg/m3 | [Br-].[Br-].[Mg+2] [magnesium bromide (MgBr2)] + O |
